Assay results: patent US4880807A, “Nicotinoylpiperazines useful for treatment of convulsions” (Institut De Recherches Chimiques et Biologiques Appliquees …, priority 1987, dated 1989)
Read-outs that look alike come from different tables or passages of the source.

Experiments:
[1] = oral toxicity in mice (LD50, mortality over 14 days); conditions: mouse, in vivo, po
Description: (§1) The toxicity of the products to be studied was investigated by the oral administration, using an esophageal tube, of each of the said products to male mice with a body weight of 18 to 22 g, divided into groups each containing 10 to 20 animals. The mortality was recorded over a 14-day period.

[2] = tested on: convulsions induced by pentetrazole; experiment: animal or person; conditions: for ED50: Mus musculus, read-out: ED50 in respect of convulsions induced by PTZ, per os, male mice, 30 min after administration, pentetrazole 125 mg/kg i.p., dose protecting 50% of animals; for ED50 / ED50 in respect of convulsions induced by PTZ: 0.5 h; for therapeutic indices compared with reference products: in words, PTZ and MCE, reference: sodium valproate and trimethadione
Source text: (§2) The anticonvulsant properties were investigated on male mice, thirty minutes after the oral administration of the substances to be studied, by the induction of convulsive seizures.

[3] = tested on: convulsions induced by supra maximal electroshock (MCE); experiment: animal or person; conditions: for ED50: Mus musculus, read-out: ED50 in respect of convulsions induced by MCE, per os, male mice, 30 min after administration, electrical stimulation of the cornea, dose protecting 50% of animals; for ED50 / ED50 in respect of convulsions induced by MCE: 0.5 h
Description: as §2
These seizures are caused either by the intraperitoneal injection of pentetrazole (125 mg/kg) or by electrical stimulation of the cornea (supra maximal electroshock, abbreviated to MCE).

[4] = tested on: male mice; experiment: in vivo; assay type: in vivo; conditions: for TD50 (50% neurotoxic dose): per os, male mice, Rota-rod 30 min after administration, dose causing 50% of animals to fall, 30 min
Source text: (§3) The animals (divided into groups each containing ten male mice per dose and per product) are installed on the rod and their fall is observed over the next two minutes.

[5] = in vivo; assay type: in vivo; conditions: mouse, po, per os, male mice, Rota-rod 30 min after administration, dose causing 50% of animals to fall, read-out: TD50 (50% neurotoxic dose)
Source text: as §3

[6] = tested on: male mice; experiment: oral toxicity in mice (LD50, mortality over 14 days); conditions: male mice
Description: as §1

[7] = LD50, oral (esophageal tube), male mice, groups of 10 to 20, 14 days, Table II
[8] = LD50, per os, male mice, repeated in Table IV
[9] = LD50 per os/ED50 per os, PTZ convulsions
[10] = LD50 per os/ED50 per os, MCE convulsions
[11] = TD50 per os/ED50 per os, MCE convulsions
[12] = TD50 per os/ED50 per os, PTZ convulsions
[13] = oral (esophageal tube), groups of 10 to 20, 14 days, Table II
[14] = per os, repeated in Table IV, 20160 min

SMILES	LD50 at 336 h [1, 7]	ED50 ([2]; po)	ED50 ([3]; po)	Therapeutic index PTZ (LD50/ED50) [2, 9]	Therapeutic index MCE (LD50/ED50) [3, 10]	ED50 in respect of convulsions induced by PTZ ([2]; po)	ED50 in respect of convulsions induced by MCE ([3]; po)	other results
CCOc1ccccc1N1CCN(C(=O)c2cccnc2)CC1 [Ex. 5]	1000 mg/kg	> 200 mg/kg	> 200 mg/kg	–	–	–	–	–
COc1ccc(N2CCN(C(=O)c3cccnc3)CC2)cc1 [Ex. 16]	> 1000 mg/kg	120 mg/kg	> 200 mg/kg	–	–	–	–	–
O=C(c1cccnc1)N1CCN(c2ccccc2Cl)CC1 [Ex. 4]	> 1000 mg/kg	160 mg/kg	200 mg/kg	–	–	–	–	–
CN1C(=O)OC(C)(C)C1=O [TRIM, trimethadione, reference compound]	–	251 mg/kg	500 mg/kg	8.7	4.4	–	–	LD50 at 336 h [1]: 2180 mg/kg; LD50 at 336 h [1, 8]: 2180 mg/kg; Protection index MCE (TD50/ED50) ([4]; mouse, in vivo, po): 2.0; Protection index PTZ (TD50/ED50) ([4]; mouse, in vivo, po): 4.0; TD50 at 0.5 h ([5]; in vivo): 1000 mg/kg
O=C(c1cccnc1)N1CCN(c2ccccc2)CC1 [Ex. 27]	> 1000 mg/kg	156 mg/kg	> 200 mg/kg	–	–	–	–	–
Cc1ccc(Cl)cc1N1CCN(C(=O)c2cccnc2)CC1 [Ex. 24, 4-(5-chloro-2-methylphenyl)-1-nicotinoylpiperazine]	> 1000 mg/kg	63 mg/kg	83 mg/kg	> 15.9	> 12.0	–	–	LD50 at 336 h [1, 8]: > 1000 mg/kg; Protection index MCE (TD50/ED50) [4, 11]: 6.3; Protection index PTZ (TD50/ED50) [4, 12]: 8.3; TD50 at 0.5 h ([5]; rota-rod): 525 mg/kg
COc1cccc(N2CCN(C(=O)c3cccnc3)CC2)c1 [Ex. 15]	> 1000 mg/kg	183 mg/kg	> 200 mg/kg	–	–	–	–	–
O=C(c1cccnc1)N1CCN(c2ccccc2F)CC1 [Ex. 9]	–	–	–	–	–	> 200 mg/kg	> 200 mg/kg	LD50 [6, 13]: > 1000 mg/kg
CCOc1cccc(N2CCN(C(=O)c3cccnc3)CC2)c1 [Ex. 18]	540 mg/kg	72 mg/kg	118 mg/kg	7.5	4.6	–	–	LD50 at 336 h [1, 8]: 540 mg/kg; Protection index MCE (TD50/ED50) ([4]; mouse, in vivo, po): 2.5; Protection index PTZ (TD50/ED50) ([4]; mouse, in vivo, po): 4.0; TD50 at 0.5 h ([5]; rota-rod): 291 mg/kg
O=C(c1cccnc1)N1CCN(c2ccccc2F)CC1 [Ex. 8]	1000 mg/kg	180 mg/kg	180 mg/kg	5.6	5.6	–	–	LD50 at 336 h [1, 8]: 1000 mg/kg; Protection index MCE (TD50/ED50) ([4]; mouse, in vivo, po): 2.8; Protection index PTZ (TD50/ED50) ([4]; mouse, in vivo, po): 2.8; TD50 at 0.5 h ([5]; rota-rod): 500 mg/kg
O=C(c1cccnc1)N1CCN(c2cccc(Cl)c2)CC1 [Ex. 2, 4-(3-chlorophenyl)-1-nicotinoylpiperazine]	501 mg/kg	50 mg/kg	78 mg/kg	–	–	–	–	–
Cc1cc(Cl)ccc1N1CCN(C(=O)c2cccnc2)CC1 [Ex. 23, 4-(4-chloro-2-methylphenyl)-1-nicotinoylpiperazine]	–	–	–	> 8.1	< 5.0	124 mg/kg	> 200 mg/kg	LD50 [6, 13]: > 1000 mg/kg; LD50 [6, 14]: > 1000 mg/kg; Protection index MCE (TD50/ED50) [4, 11]: 4.5; Protection index PTZ (TD50/ED50) [4, 12]: 7.4; TD50 (50% neurotoxic dose) [4]: 650 mg/kg
Cl.Cl.O=C(c1cccnc1)N1CCN(c2cccc(C(F)(F)F)c2)CC1 [Ex. 1, 1-nicotinoyl-4-(3-trifluoromethylphenyl)piperazine dihydrochloride]	575 mg/kg	17 mg/kg	19 mg/kg	33.8	30.2	–	–	LD50 at 336 h [1, 8]: 575 mg/kg; therapeutic indices compared with reference products [2]: better than those of the reference products; Protection index MCE (TD50/ED50) [4, 11]: 8.1; Protection index PTZ (TD50/ED50) [4, 12]: 9.1; protection indices compared with reference products ([4]; mouse, in vivo): better than those of the reference products; TD50 at 0.5 h ([5]; rota-rod): 154 mg/kg
Cc1ccccc1N1CCN(C(=O)c2cccnc2)CC1 [Ex. 14]	> 1000 mg/kg	–	–	–	–	107 mg/kg	> 200 mg/kg	LD50 at 336 h [1, 8]: > 1000 mg/kg; Therapeutic index PTZ (LD50/ED50) ([2]; mouse, in vivo, po): > 10.0; Protection index MCE (TD50/ED50) ([4]; mouse, in vivo, po): < 3.0; Protection index PTZ (TD50/ED50) ([4]; mouse, in vivo, po): 5.9; TD50 at 0.5 h ([5]; rota-rod): 635 mg/kg; Therapeutic index MCE (LD50/ED50) ([3]; mouse, in vivo, po): < 5.0
O=C(c1cccnc1)N1CCN(c2ccc(F)cc2)CC1 [Ex. 10, 4-(4-fluorophenyl)-1-nicotinoylpiperazine]	600 mg/kg	62 mg/kg	75 mg/kg	–	–	–	–	–
O=C(c1cccnc1)N1CCN(c2ccccc2C(F)(F)F)CC1 [Ex. 12]	> 1000 mg/kg	> 200 mg/kg	> 200 mg/kg	–	–	–	–	–
Cc1cc(Cl)ccc1N1CCN(C(=O)c2cccnc2)CC1 [Ex. 22, 4-(4-chloro-2-methylphenyl)-1-nicotinoylpiperazine]	540 mg/kg	–	–	9.8	6.2	55 mg/kg	87 mg/kg	LD50 at 336 h [1, 8]: 540 mg/kg; Protection index MCE (TD50/ED50) [4, 11]: 3.4; Protection index PTZ (TD50/ED50) [4, 12]: 5.4; TD50 (50% neurotoxic dose) [4]: 300 mg/kg
CC(=O)c1ccc(N2CCN(C(=O)c3cccnc3)CC2)cc1 [Ex. 20]	> 1000 mg/kg	> 200 mg/kg	> 200 mg/kg	–	–	–	–	–
O=C(c1cccnc1)N1CCN(c2cccc(C(F)(F)F)c2)CC1 [Ex. 6, 1-nicotinoyl-4-(3-trifluoromethylphenyl)piperazine]	422 mg/kg	13 mg/kg	20 mg/kg	32.5	21.1	–	–	LD50 at 336 h [1, 8]: 422 mg/kg; therapeutic indices compared with reference products [2]: better than those of the reference products; Protection index MCE (TD50/ED50) [4, 11]: 6.0; Protection index PTZ (TD50/ED50) [4, 12]: 9.1; protection indices compared with reference products ([4]; mouse, in vivo): better than those of the reference products; TD50 at 0.5 h ([5]; rota-rod): 119 mg/kg
Cc1cccc(N2CCN(C(=O)c3cccnc3)CC2)c1C [Ex. 3]	> 1000 mg/kg	110 mg/kg	> 200 mg/kg	–	–	–	–	–
Cc1cccc(Cl)c1N1CCN(C(=O)c2cccnc2)CC1 [Ex. 26]	> 1000 mg/kg	> 200 mg/kg	> 200 mg/kg	–	–	–	–	–
CCOc1cccc(N2CCN(C(=O)c3cccnc3)CC2)c1 [Ex. 19]	–	–	–	–	6.7	142 mg/kg	150 mg/kg	Therapeutic index PTZ (LD50/ED50) ([2]; mouse, in vivo, po): 7.0; Protection index MCE (TD50/ED50) ([4]; mouse, in vivo, po): 1.7; Protection index PTZ (TD50/ED50) ([4]; mouse, in vivo, po): 1.8; TD50 (50% neurotoxic dose) [4]: 250 mg/kg
O=C(c1cccnc1)N1CCN(c2ccc(C(F)(F)F)cc2)CC1 [Ex. 7]	> 1000 mg/kg	> 200 mg/kg	> 200 mg/kg	–	–	–	–	–
Cc1cccc(C)c1N1CCN(C(=O)c2cccnc2)CC1 [Ex. 30]	> 1000 mg/kg	138 mg/kg	–	–	–	–	–	–
Cc1ccc(Cl)cc1N1CCN(C(=O)c2cccnc2)CC1 [Ex. 25, 4-(5-chloro-2-methylphenyl)-1-nicotinoylpiperazine]	–	–	–	> 12.7	> 11.5	79 mg/kg	87 mg/kg	LD50 [6, 13]: > 1000 mg/kg; LD50 [6, 14]: > 1000 mg/kg; Protection index MCE (TD50/ED50) [4, 11]: 4.1; Protection index PTZ (TD50/ED50) [4, 12]: 4.5; TD50 (50% neurotoxic dose) [4]: 355 mg/kg
COc1ccc(N2CCN(C(=O)c3cccnc3)CC2)cc1 [Ex. 17]	–	–	–	–	–	200 mg/kg	> 200 mg/kg	LD50 [6, 13]: > 1000 mg/kg
Cc1ccccc1N1CCN(C(=O)c2cccnc2)CC1 [Ex. 13]	–	161 mg/kg	200 mg/kg	6.2	5.0	–	–	LD50 at 336 h [1]: 1000 mg/kg; Protection index MCE (TD50/ED50) [4, 11]: 4.0; Protection index PTZ (TD50/ED50) [4, 12]: 4.9; TD50 at 0.5 h ([5]; in vivo): 800 mg/kg
O=C(c1cccnc1)N1CCN(c2ccc(F)cc2)CC1 [Ex. 11, 4-(4-fluorophenyl)-1-nicotinoylpiperazine]	–	–	–	–	–	68 mg/kg	75 mg/kg	LD50 at 336 h [1]: 625 mg/kg
O=C(c1cccnc1)N1CCN(c2ccccc2)CC1 [Ex. 28]	–	–	–	–	–	> 200 mg/kg	> 200 mg/kg	LD50 [6, 13]: > 1000 mg/kg
